Consider 4 compounds from patent US10533018B2, “Antimicrobial prochelators to target drug-resistant bacteria and methods of making and using the same” (Duke University, priority 2015, dated 2020).

Test [1] relates to Methicillin-Resistant Staphylococcus aureus (MRSA). The test can be described thus: microbe, parasite or virus in culture. It counts as cell-based. The source says: (§1) Bacterial culture reagents including LB broth (Lennox), agar-agar, ampicillin, and ceftriaxone were purchased from Sigma Aldrich Corp. The Escherichia coli (E. coli) K12 strain HB101 and pGLO E. coli transformation kit purchased from Bio-Rad Laboratories Inc. HB101 was transformed with the bla gene via the pGLO plasmid. The bla gene encodes for a TEM-1 β-lactamase that imparts penicillin resistance to the mutant E. coli K-12 strain (+Bla). Strains E. coli UTI89, [27] pCOM-GFP-transformed E. coli UTI89 (pCOM-GFP), [28] and Methicillin-Resistant Staphylococcus aureus (MRSA) clone USA300 [29] have been previously described. The Extended-Spectrum β-Lactamase (ESBL) E. coli, Klebsiella pneumonia (Klebs), and Pseudomonas aeruginosa (Pseudo) strains were clinical isolates acquired deidentified from Duke Hospital and tested for antibiotic susceptibility in the Clinical Microbiology Laboratory using standard clinical susceptibility methods.
(§2) Cultures were incubated on LB (Lennox, Sigma) agar at 37° C. in ambient atmospheric composition. Before beginning an experiment, a single bacterial colony grown on LB agar was resuspended in 2 mL LB broth and incubated overnight to form a turbid cell suspension. The overnight culture was diluted 1:100 in LB and used immediately as the working culture. To assess the antibacterial activity of compounds, the working bacterial culture was aliquoted in a clear, flat-bottomed, 96-well polystyrene plate (Costar) and the compound of interest was added in 2-fold serial dilution from 500 to 1 μM. Plates were covered with a breathable sealing film (Aeroseal, Genesee Scientific) and incubated at 37° C. in ambient atmospheric composition with shaking at 200 rpm. Optical density at 600 nm was recorded after 4 h and 20 h for each well using a standard OD600 protocol with LB serving as the blank. The resulting dose-response curves were fit to a nonlinear regression in GraphPad Prism Version 6 to calculate the IC50 of DB4-51 in each strain.
(§3) The ability of DB4-162 to inhibit bacterial growth was assessed by a traditional broth microdilution method that assesses the turbidity of liquid cultures in the presence of varying concentrations of the compound. As described above for DB4-51, the antibacterial properties of the prochelator DB4-162 were assessed in non-pathogenic lab-strain HB101K-12 E. coli and compared to the pGLO-transfected mutant HB101K-12 E. coli that express β-lactamase. Clinically relevant pathogenic bacteria were also screened, including UTI89 E. coli, pCOM transfected UTI89 E. coli (pCOM), extended spectrum β-lactamase (ESBL) E. coli, methicillin-resistant Staphylococcus aureus (MRSA), and Klebsiella pneumonia (Klebs). In addition to being naturally resistant to many β-lactam antibiotics, MRSA can produce a number of β-lactamases. […] It should be noted that all of the bacteria tested are gram-negative except for gram-positive MRSA.
(§4) The goal of this screen was to calculate the IC50 of the prochelator in a series of pathogenic bacteria and compare these values to the IC50 of known antibiotics in those same strains to determine the relative effectiveness of DB4-162 against the drug-resistant and drug-susceptible bacteria in comparison to current antibiotic treatment options. Bacterial growth was monitored in LB broth at 37° C. in the presence and absence of DB4-162 for 20 hours. A concentration gradient of DB4-162 from 500 to 0 μM was used to screen all 7 strains of bacteria and the dose-response curves were fit to a […] to calculate the IC50 of DB4-162 in each strain. These IC50 values are an approximation of how effectively DB4-162 inhibits the growth of each bacterial strain in vitro.
(§5) IC50 values for ampicillin were calculated via broth microdilution in LB broth only. Values are listed as the mean followed by the 95% confidence interval about the mean. Mean and confidence intervals were calculated from a variable slope, nonlinear regression fit to the dose-response OD600 data. […]

A further test deals with −Bla K-12 E. coli. Description: microbe, parasite or virus in culture. It counts as cell-based, Escherichia coli. The following applies: −Bla K-12 E. coli.
Description: as §1, §2, §3, §4, §5

In a further test the test system is +Bla K-12 E. coli. The test can be described thus: microbe, parasite or virus in culture. It counts as cell-based, Escherichia coli.
Description: as §1, §2, §3, §4, §5

A further test deals with ESBL E. coli. The test can be described thus: microbe, parasite or virus in culture. It counts as cell-based, Escherichia coli. Particulars: for IC50: ESBL E. coli.
Description: as §1, §2, §3, §4, §5

For test [2], the system named is Klebsiella pneumonia (Klebs). Description: Broth microdilution growth inhibition (OD600). It counts as cell-based.
Description: as §1, §2, §3, §4, §5

Test [3] can be described thus: Calcein fluorescence assay for Cu competition. The format is physicochemical. The protocol:
FIG. 11: To solutions of 2 μM calcein in pH 7.4 PBS was added 2.4 μM CuCl2 and the samples were fully equilibrated at room temperature for 2 hours. Next, 20 μM TAT, 20 μM DB4-162, 0.1 units/mL β-lactamase were added and the fluorescence at 500 nm was recorded after one hour.
A calcein fluorescence assay for metal competition was utilized in order to evaluate the relative metal-binding affinity of DB4-51 compared to PT. The fluorescence intensity of the probe calcein is quenched by more than 90% upon binding Cu^2+. […] However, when incubated with 10 equivalents of DB4-51 and 0.1 units/mL Type III β-lactamase from Enterobacter cloacae, there is an 85% return in calcein fluorescence, which correlates well with the 90% return observed for PT itself at the same concentration.
FIG. 4: Relative Cu binding assay with DB4-51 and PT against calcein. Solutions of 2 μM calcein and 2.4 μM CuCl2 in pH 7.4 PBS were equilibrated at room temperature for 2 hours prior to addition of 20 μM PT, 20 μM DB4-51, and/or 0.1 units/mL β-lactamase (Bla).
The calcein assay was utilized in order to assess the relative copper chelating ability of the prochelator and TAT. The fluorescence emission of calcein is quenched by more than 90% in the presence of 1.2 equivalents of CuCl2 (FIG. 11). […] The addition of 0.1 units/mL β-lactamase alone has no effect on the quenched fluorescence signal of the Cu-calcein solution. […] However, when incubated with 10 equivalents of DB4-162 and 0.1 units/mL β-lactamase there is a 90% return in calcein fluorescence. […] While it is unclear why 10 equivalents of TAT are insufficient to out-compete calcein for copper, it may be related to the propensity of TAT to form other species in aqueous media.

In another test the test system is pCOM E. coli. The test can be described thus: microbe, parasite or virus in culture. The format is cell-based, Escherichia coli. The following applies: for IC50: Escherichia coli, pCOM E. coli.
Description: as §1, §2, §3, §4, §5

Setting [4] is: Escherichia coli, +Bla K-12 E. coli, LB + 10 μM CuCl2.
Where [5] appears, read: Escherichia coli, +Bla K-12 E. coli, LB + 500 μM BCS.
[6] abbreviates: 2 μM calcein + 2.4 μM CuCl2, pH 7.4 PBS, 20 μM (10 equivalents) compound alone, 1 h.
The mark [7] stands for this setting: as above, 10 equivalents compound + 0.1 units/mL β-lactamase.
Setting [8] is: Escherichia coli, LB + 10 μM CuCl2, read-out: IC50.
The mark [9] stands for this setting: Escherichia coli, LB + 500 μM BCS, read-out: IC50.
[10] abbreviates: Escherichia coli, LB + 500 μM BCS.
[11] abbreviates: Klebsiella pneumoniae, LB + 10 μM CuCl2.
[12] abbreviates: Klebsiella pneumoniae, LB + 500 μM BCS.
Where [13] appears, read: Staphylococcus aureus, LB + 500 μM BCS.
[14] abbreviates: Escherichia coli, +Bla K-12 E. coli, LB broth.
Setting [15] is: Klebsiella pneumoniae, LB broth.

Where two headings read alike, the source gives them in different places. Bounds are passed on as bounds.

In the case of `CC1(C)S[C@@H]2[C@H](NC(=O)[C@H](N)c3ccccc3)C(=O)N2[C@H]1C(=O)O` [Ampicillin], the IC50 in test [1] (LB broth) is greater than 250000 nM; with −Bla K-12 E. coli (LB broth, listed as ampicillin, read-out: IC50), 8 µM; in the test on −Bla K-12 E. coli (LB broth, read-out: IC50), 0.008 µM; in the test on +Bla K-12 E. coli (+Bla K-12 E. coli, LB broth) it was greater than 250 µM; with +Bla K-12 E. coli (setting [4]), greater than 250 µM; with +Bla K-12 E. coli (setting [5]), greater than 250 µM. Besides, the 50% inhibitory concentration (IC50) is greater than 250 µM with ESBL E. coli (LB broth) and greater than 250000 nM in test [2] (LB broth).
For the compound `O=C(Cc1ccccc1)N[C@@H]1C(=O)N2C(C(=O)O)=C(CSc3cccc[n+]3[O-])CS[C@H]12` [DB4-51, 2-((((6R,7R)-2-carboxy-8-oxo-7-(2-phenylacetamido)-5-thia-1-azabicyclo[4.2.0]oct-2-en-3-yl)methyl)thio)pyridine 1-oxide], the “change in IC50 value as a function of Cu availability” value in test [1] (Cu-replete vs Cu-limited) stood at 55 fold. Further, the “return in calcein fluorescence” value in test [3] (setting [6]) was “does not compete with calcein for Cu binding”; in test [3] (setting [7]), 85%. The “change in IC50 value depending on Cu status” value is 10 fold in the test on pCOM E. coli (pCOM-GFP UTI89 E. coli, Cu replete vs Cu depleted) and “less than 4 fold” in the test on +Bla K-12 E. coli (+Bla K-12 E. coli, Cu replete vs Cu depleted). Besides, the IC50 in the test with −Bla K-12 E. coli (setting [8]) was found to be 0.015 µM; in the test with −Bla K-12 E. coli (setting [9]) it was 0.038 µM; in the test on −Bla K-12 E. coli (Escherichia coli, pre-incubated with β-lactamase, read-out: IC50 after pre-incubation with β-lactamase), 9 µM; with +Bla K-12 E. coli (setting [5]), 0.051 µM; in the test on +Bla K-12 E. coli (Escherichia coli, read-out: IC50 after pre-incubation with β-lactamase, +Bla K-12 E. coli, pre-incubated with β-lactamase), 8 µM; with ESBL E. coli (setting [10]) it was 0.017 µM. Moreover, the IC50 came to 25 nM in test [2] (setting [11]) and 20 nM in test [2] (setting [12]).
Regarding `Cc1csc(=S)n1OCC1=C(C(=O)O)N2C(=O)[C@@H](NC(=O)Cc3ccccc3)[C@H]2SC1` [DB4-162, (6R,7R)-3-(((4-methyl-2-thioxothiazol-3(2H)-yl)oxy)methyl)-8-oxo-7-(2-phenylacetamido)-5-thia-1-azabicyclo[4.2.0]oct-2-ene-2-carboxylic acid], the half-inhibitory concentration (IC50) in test [1] (Staphylococcus aureus, LB + 10 μM CuCl2) is 2700 nM; in test [1] (setting [13]), 2400 nM; in test [1] (Staphylococcus aureus, LB broth), 2400 nM; in the test on pCOM E. coli (LB + 10 μM CuCl2), 93 µM; in the test on pCOM E. coli (LB + 500 μM BCS), 168 µM; in the test with pCOM E. coli (LB broth) it was 112 µM. Further, the IC50 stood at 39 µM in the test on −Bla K-12 E. coli (setting [8]); 54 µM in the test on −Bla K-12 E. coli (setting [9]); 227 µM in the test with −Bla K-12 E. coli (Escherichia coli, LB broth, read-out: IC50); 147 µM in the test on +Bla K-12 E. coli (setting [4]); 179 µM in the test on +Bla K-12 E. coli (setting [5]); 143 µM with +Bla K-12 E. coli (setting [14]). Further, the half-maximal inhibitory concentration (IC50) in the test on ESBL E. coli (Escherichia coli, LB + 10 μM CuCl2) is 21 µM; with ESBL E. coli (setting [10]), 50 µM; with ESBL E. coli (Escherichia coli, LB broth) it was 22 µM; in test [2] (setting [11]), 22000 nM; in test [2] (setting [12]) it was 24000 nM; in test [2] (setting [15]), 28000 nM. The “return in calcein fluorescence” value is recorded as “approximately 50%” in test [3] (setting [6]) and 90% in test [3] (setting [7]). Besides, the “IC50 in ESBL E. coli lower than in −Bla K-12 E. coli” value with ESBL E. coli (LB broth) is 90%.
Regarding `[O-][n+]1ccccc1S` [PT, 2-mercaptopyridine N-oxide], the half-maximal inhibitory concentration (IC50) in test [1] (setting [13]) is 11 nM; with pCOM E. coli (LB + 10 μM CuCl2), 0.004 µM; in the test on pCOM E. coli (LB + 500 μM BCS), 0.007 µM; in the test with pCOM E. coli (LB broth), 0.002 µM; in the test with +Bla K-12 E. coli (setting [5]) it was 0.019 µM; with +Bla K-12 E. coli (setting [14]), 0.006 µM. The IC50 in the test on ESBL E. coli (Escherichia coli, LB broth) is 0.005 µM; in test [2] (setting [11]), 9 nM; in test [2] (setting [12]) it was 19 nM; in test [2] (setting [15]), 11 nM. In addition, the “return in calcein fluorescence” value in test [3] (setting [6]) is 90%.
